Each structure is given as a SMILES string.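 Grown in 96-well plates, cells were treated for 48 hours with each compound at five concentrations. Insufficient inhibition: endpoint recorded as highest concentration tested. Here, GI50 denotes the concentration required for 50% inhibition of growth. Definition used: TGI = concentration required for complete inhibition of growth.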 *1 amine or outer side, *2 acyl side, *3 side chain or, on linkers, in order; H or OH if unused. Where a SMILES comes first, the peptide text is derived from it. Bridges are numbered along the chain shown (N, C = ends). Roman numbers before positions name the chains, in order. [ ]: non-standard residue; d: D form. Actinocin(9to1) = Cc1c2oc3c(C)ccc(C(=O)[*:1])c3nc-2c(C(=O)[*:2])c(N)c1=O; NMeV = CN[CH](C(=O)O)C(C)C; Sar = CNCC(=O)O

Test systems include IGROV1 ovarian; M14 melanoma; NCI-H226 lung; NCI-H460 lung; NCI-H522 lung; PC-3 prostate; RPMI-8226 leukemia; SNB-19 CNS; U251 CNS; UO-31 renal.
What all share (test): NCI tumour cell line growth inhibition, 48 h

Take `Cc1cc(C(=O)Nc2cc(Oc3ccc4nc(NC(=O)C5CC5)cn4n3)ccc2C)n(C)n1`: the GI50 was 5.06 µM in the experiment with IGROV1 ovarian; 5.51 µM with M14 melanoma; 0.86 µM in the experiment on NCI-H226 lung; greater than 10 µM with NCI-H460 lung; greater than 10 µM with NCI-H522 lung; greater than 10 µM in the experiment with PC-3 prostate. The GI50 in the experiment with RPMI-8226 leukemia, in the experiment with SNB-19 CNS, in the experiment with U251 CNS and with UO-31 renal was greater than 10 µM each time. Further, the TGI in the experiment with IGROV1 ovarian, with M14 melanoma, with NCI-H226 lung, with NCI-H460 lung, in the experiment with NCI-H522 lung and with PC-3 prostate was greater than 10 µM each time. In addition, the TGI with RPMI-8226 leukemia, with SNB-19 CNS, in the experiment on U251 CNS and in the experiment with UO-31 renal was greater than 10 µM throughout.
In the case of `O=C1Nc2ccccc2/C1=C\c1cccc(/C=C2/C(=O)Nc3ccccc32)n1`, the GI50 in the experiment on IGROV1 ovarian was 0.44 µM; in the experiment with M14 melanoma it was 0.484 µM; in the experiment on NCI-H226 lung, 1.53 µM; in the experiment on NCI-H460 lung, 0.669 µM; with NCI-H522 lung it was 0.208 µM; in the experiment with PC-3 prostate, 0.654 µM. Further, the GI50 in the experiment on RPMI-8226 leukemia was 0.232 µM; with SNB-19 CNS, 0.526 µM; in the experiment on U251 CNS it was 0.16 µM; with UO-31 renal, 0.779 µM. For the same compound, the TGI was found to be 1.67 µM in the experiment with IGROV1 ovarian; 2.11 µM in the experiment on M14 melanoma; 5.13 µM in the experiment on NCI-H226 lung; 1.85 µM in the experiment on NCI-H460 lung; 0.705 µM with NCI-H522 lung; 3.31 µM in the experiment with PC-3 prostate. Further, the TGI worked out at 0.699 µM with RPMI-8226 leukemia, 1.98 µM with SNB-19 CNS, 0.346 µM with U251 CNS and 2.37 µM in the experiment on UO-31 renal.
On to `CCOc1cc(C(=O)O)c2c(ccc3ccc(OC)c(OC)c32)c1OC`, for which the TGI in the experiment with IGROV1 ovarian, in the experiment with M14 melanoma, in the experiment with NCI-H226 lung, with NCI-H460 lung, in the experiment on NCI-H522 lung and in the experiment on PC-3 prostate was greater than 100 µM each time. In addition, the TGI with RPMI-8226 leukemia, with SNB-19 CNS, in the experiment with U251 CNS and in the experiment on UO-31 renal was greater than 100 µM throughout.
For the compound `Cc1c(N)nc([C@H](CC(N)=O)NC[C@H](N)C(N)=O)nc1C(=O)N[C@H](C(=O)N[C@H](C)[C@@H](O)CC(=O)N[C@H](C(=O)NC(O[C@@H]1O[C@@H](C)[C@@H](N)[C@@H](O)[C@H]1O)C(O)c1nc(-c2nc(C(=O)NCCCCN)cs2)cs1)[C@@H](C)O)[C@@H](O[C@@H]1O[C@@H](CO)[C@@H](O)[C@H](O)[C@@H]1O[C@H]1O[C@H](CO)[C@@H](O)[C@H](OC(N)=O)[C@@H]1O)c1c[nH]cn1` (some centres undefined), the TGI in the experiment with IGROV1 ovarian, in the experiment with M14 melanoma, in the experiment on NCI-H226 lung, in the experiment with NCI-H460 lung, with NCI-H522 lung and with PC-3 prostate was greater than 50 µM throughout. Besides, the TGI in the experiment with RPMI-8226 leukemia, with SNB-19 CNS, with U251 CNS and with UO-31 renal was greater than 50 µM each time.
With `Cc1c2oc3c(C)ccc(C(=O)OC(C)C4NC(=O)C(C(C)C)N(C)C(=O)CN(C)C(=O)C5CCCN5C(=O)C(C(C)C)NC4=O)c3nc-2c(C(=O)OC(C)C2NC(=O)C(C(C)C)N(C)C(=O)CN(C)C(=O)C3CCCN3C(=O)C(C(C)C)NC2=O)c(N)c1=O` (centres undefined) (I: cyclo([Sar][NMeV]TVP) / II: cyclo([Sar][NMeV]TVP); linker I:3-II:3 via Actinocin(9to1); configuration not given here), the GI50 with IGROV1 ovarian is less than 0.01 µM; in the experiment with M14 melanoma, 0.0117 µM; in the experiment with NCI-H226 lung it was less than 0.01 µM; in the experiment on NCI-H460 lung, less than 0.01 µM; in the experiment with NCI-H522 lung, less than 0.01 µM; in the experiment with PC-3 prostate it was less than 0.01 µM. Also, the GI50 in the experiment on RPMI-8226 leukemia was less than 0.01 µM; in the experiment with SNB-19 CNS it was less than 0.01 µM; in the experiment on U251 CNS, less than 0.01 µM; in the experiment with UO-31 renal it was 0.0302 µM. In addition, the TGI in the experiment with IGROV1 ovarian was 5.9 µM; with M14 melanoma it was 0.0517 µM; in the experiment on NCI-H226 lung, 0.0335 µM; in the experiment with NCI-H460 lung, greater than 32.7 µM; in the experiment with NCI-H522 lung, less than 0.0116 µM; with PC-3 prostate, 19.7 µM. Moreover, the figures for the TGI in the experiment on RPMI-8226 leukemia, with SNB-19 CNS and in the experiment with UO-31 renal were 0.0582 µM, greater than 55.5 µM and 0.206 µM, respectively.
As to `c1ccc2cc(Cn3cc[n+](Cc4ccc5ccccc5c4)c3)ccc2c1`, the GI50 in the experiment on IGROV1 ovarian is 0.659 µM; with M14 melanoma, 1.43 µM; with NCI-H226 lung it was 1.72 µM; in the experiment with NCI-H460 lung it was 1.27 µM; in the experiment with NCI-H522 lung, 0.393 µM; in the experiment with PC-3 prostate, 0.535 µM. In addition, the GI50 with RPMI-8226 leukemia is 0.348 µM; with SNB-19 CNS, 0.979 µM; with U251 CNS, 1.5 µM; with UO-31 renal, 12.1 µM. For the same compound, the TGI was 3.75 µM in the experiment on IGROV1 ovarian; 8.34 µM with M14 melanoma; 14.3 µM in the experiment on NCI-H226 lung; 10.4 µM in the experiment on NCI-H460 lung; 3.11 µM in the experiment with NCI-H522 lung; 5.6 µM in the experiment on PC-3 prostate. In addition, the TGI with RPMI-8226 leukemia came out at 1.97 µM; in the experiment on SNB-19 CNS, 6.97 µM; in the experiment on U251 CNS, 11 µM; in the experiment with UO-31 renal, 28.8 µM.
With `COc1ccc(OC)c(NC(=O)c2cccc(NC3=C(Cl)C(=O)N(Cc4ccccc4)C3=O)c2)c1`, the GI50 was greater than 100 µM in the experiment on IGROV1 ovarian; greater than 75 µM with M14 melanoma; greater than 67.3 µM with NCI-H226 lung; greater than 58.1 µM with NCI-H460 lung; greater than 100 µM in the experiment on NCI-H522 lung; 38.2 µM in the experiment on PC-3 prostate. Besides, the GI50 in the experiment with RPMI-8226 leukemia was 15.9 µM; with SNB-19 CNS it was greater than 100 µM; in the experiment on U251 CNS it was greater than 100 µM; with UO-31 renal it was greater than 90.3 µM. Moreover, the TGI in the experiment with IGROV1 ovarian, with M14 melanoma, in the experiment on NCI-H226 lung, in the experiment on NCI-H460 lung, in the experiment with NCI-H522 lung and in the experiment on PC-3 prostate was greater than 100 µM each time. Moreover, the TGI in the experiment on RPMI-8226 leukemia was greater than 79 µM; in the experiment with SNB-19 CNS it was greater than 100 µM; with U251 CNS, greater than 100 µM; with UO-31 renal, greater than 100 µM.
